Assay results published in PubChem BioAssay (NCI).
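Five concentrations, 48 hours, 96-well plates. GI50: concentration for 50% inhibition of growth. TGI denotes the concentration required for complete inhibition of growth.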

What was measured:
Test in all cases: inhibition of tumour cell growth, NCI panel, 48 h
NCI-H522 lung = test system: NCI-H522 lung
ACHN renal = test system: ACHN renal
MALME-3M melanoma = test system: MALME-3M melanoma
786-0 renal = test system: 786-0 renal
NCI/ADR-RES ovarian = test system: NCI/ADR-RES ovarian
SF-539 CNS = test system: SF-539 CNS
HT29 colon = test system: HT29 colon
HCT-15 colon = test system: HCT-15 colon
M14 melanoma = test system: M14 melanoma
IGROV1 ovarian = test system: IGROV1 ovarian
PC-3 prostate = test system: PC-3 prostate
TK-10 renal = test system: TK-10 renal
CAKI-1 renal = test system: CAKI-1 renal
SK-MEL-28 melanoma = test system: SK-MEL-28 melanoma
OVCAR-3 ovarian = test system: OVCAR-3 ovarian
U251 CNS = test system: U251 CNS
BT-549 breast = test system: BT-549 breast
NCI-H226 lung = test system: NCI-H226 lung
OVCAR-5 ovarian = test system: OVCAR-5 ovarian
MCF7 breast = test system: MCF7 breast
HL-60(TB) leukemia = test system: HL-60(TB) leukemia
HS 578T breast = test system: HS 578T breast
SW-620 colon = test system: SW-620 colon
COLO 205 colon = test system: COLO 205 colon
SF-295 CNS = test system: SF-295 CNS
CCRF-CEM leukemia = test system: CCRF-CEM leukemia
SK-MEL-2 melanoma = test system: SK-MEL-2 melanoma
LOX IMVI melanoma = test system: LOX IMVI melanoma
HOP-62 NSCLC = test system: HOP-62 NSCLC
SK-OV-3 ovarian = test system: SK-OV-3 ovarian
SN12C renal = test system: SN12C renal
SNB-19 CNS = test system: SNB-19 CNS
K-562 leukemia = test system: K-562 leukemia
MDA-MB-435 = test system: MDA-MB-435
MOLT-4 leukemia = test system: MOLT-4 leukemia
EKVX NSCLC = test system: EKVX NSCLC
SF-268 CNS = test system: SF-268 CNS
RPMI-8226 leukemia = test system: RPMI-8226 leukemia
SNB-75 CNS = test system: SNB-75 CNS
SK-MEL-5 melanoma = test system: SK-MEL-5 melanoma
UO-31 renal = test system: UO-31 renal
OVCAR-8 ovarian = test system: OVCAR-8 ovarian
NCI-H460 lung = test system: NCI-H460 lung
NCI-H23 lung = test system: NCI-H23 lung
HCT-116 colon = test system: HCT-116 colon
T-47D breast = test system: T-47D breast
OVCAR-4 ovarian = test system: OVCAR-4 ovarian
DU-145 prostate = test system: DU-145 prostate
UACC-257 melanoma = test system: UACC-257 melanoma
A549 NSCLC = test system: A549 NSCLC
KM12 colon = test system: KM12 colon
MDA-MB-231 breast = test system: MDA-MB-231 breast
SR leukemia = test system: SR leukemia
A498 renal = test system: A498 renal
UACC-62 melanoma = test system: UACC-62 melanoma

SMILES: Cc1cc2c(cc1C)[n+](=O)c(C(=O)C(C)(C)C)c(C(F)(F)F)n2[O-]
- GI50 (NCI-H522 lung): 18.9 µM
- TGI (NCI-H522 lung): 49.6 µM
- GI50 (ACHN renal): 16.1 µM
- TGI (ACHN renal): 34.5 µM
- GI50 (MALME-3M melanoma): 24.2 µM
- TGI (MALME-3M melanoma): 68.1 µM
- GI50 (786-0 renal): 29.4 µM
- TGI (786-0 renal): > 100 µM
- GI50 (NCI/ADR-RES ovarian): 9.08 µM
- TGI (NCI/ADR-RES ovarian): 27.5 µM
- GI50 (SF-539 CNS): 16.6 µM
- TGI (SF-539 CNS): 41.9 µM
- GI50 (HT29 colon): 31.7 µM
- TGI (HT29 colon): > 100 µM
- GI50 (HCT-15 colon): 13.7 µM
- TGI (HCT-15 colon): 55.6 µM
- GI50 (M14 melanoma): 27.5 µM
- TGI (M14 melanoma): 80.8 µM
- GI50 (IGROV1 ovarian): 5.17 µM
- TGI (IGROV1 ovarian): 20.3 µM
- GI50 (PC-3 prostate): 6.24 µM
- TGI (PC-3 prostate): 39.2 µM
- GI50 (TK-10 renal): 75.4 µM
- TGI (TK-10 renal): > 100 µM
- GI50 (CAKI-1 renal): 21.3 µM
- TGI (CAKI-1 renal): 55 µM
- GI50 (SK-MEL-28 melanoma): > 100 µM
- TGI (SK-MEL-28 melanoma): > 100 µM
- GI50 (OVCAR-3 ovarian): 21.2 µM
- TGI (OVCAR-3 ovarian): 50.1 µM
- GI50 (U251 CNS): 20.8 µM
- TGI (U251 CNS): > 100 µM
- GI50 (BT-549 breast): 12 µM
- TGI (BT-549 breast): 50.5 µM
- GI50 (NCI-H226 lung): 16.2 µM
- TGI (NCI-H226 lung): 70.6 µM
- GI50 (OVCAR-5 ovarian): 8.51 µM
- TGI (OVCAR-5 ovarian): 54.2 µM
- GI50 (MCF7 breast): 20.8 µM
- TGI (MCF7 breast): 77.7 µM
- GI50 (HL-60(TB) leukemia): 5.9 µM
- TGI (HL-60(TB) leukemia): 24.5 µM
- GI50 (HS 578T breast): 14.4 µM
- TGI (HS 578T breast): 58.6 µM
- GI50 (SW-620 colon): 28.4 µM
- TGI (SW-620 colon): > 100 µM
- GI50 (COLO 205 colon): 54.4 µM
- TGI (COLO 205 colon): > 100 µM
- GI50 (SF-295 CNS): 28.8 µM
- TGI (SF-295 CNS): 85.4 µM
- GI50 (CCRF-CEM leukemia): 12.3 µM
- TGI (CCRF-CEM leukemia): 49.3 µM
- GI50 (SK-MEL-2 melanoma): 25.6 µM
- TGI (SK-MEL-2 melanoma): 58.7 µM
- GI50 (LOX IMVI melanoma): 9.53 µM
- TGI (LOX IMVI melanoma): 25.7 µM
- GI50 (HOP-62 NSCLC): 17 µM
- TGI (HOP-62 NSCLC): 59.1 µM
- GI50 (SK-OV-3 ovarian): 50 µM
- TGI (SK-OV-3 ovarian): > 100 µM
- GI50 (SN12C renal): 14.1 µM
- TGI (SN12C renal): 62.7 µM
- GI50 (SNB-19 CNS): 56.2 µM
- TGI (SNB-19 CNS): > 100 µM
- GI50 (K-562 leukemia): 4.3 µM
- TGI (K-562 leukemia): 19.9 µM
- GI50 (MDA-MB-435): 28.2 µM
- TGI (MDA-MB-435): 78.9 µM
- GI50 (MOLT-4 leukemia): 8.2 µM
- TGI (MOLT-4 leukemia): 29.3 µM
- GI50 (EKVX NSCLC): 2.91 µM
- TGI (EKVX NSCLC): 9.95 µM
- GI50 (SF-268 CNS): 16.6 µM
- TGI (SF-268 CNS): 82.5 µM
- GI50 (RPMI-8226 leukemia): 3.57 µM
- TGI (RPMI-8226 leukemia): 15.4 µM
- GI50 (SNB-75 CNS): 45.9 µM
- TGI (SNB-75 CNS): > 100 µM
- GI50 (SK-MEL-5 melanoma): 12.5 µM
- TGI (SK-MEL-5 melanoma): 26.9 µM
- GI50 (UO-31 renal): 17.4 µM
- TGI (UO-31 renal): 33.2 µM
- GI50 (OVCAR-8 ovarian): 3.62 µM
- TGI (OVCAR-8 ovarian): 15.5 µM
- GI50 (NCI-H460 lung): 13.7 µM
- TGI (NCI-H460 lung): 34 µM
- GI50 (NCI-H23 lung): 16.1 µM
- TGI (NCI-H23 lung): 47.6 µM
- GI50 (HCT-116 colon): 10.6 µM
- TGI (HCT-116 colon): > 100 µM
- GI50 (T-47D breast): 32.3 µM
- TGI (T-47D breast): > 100 µM
- GI50 (OVCAR-4 ovarian): 26.7 µM
- TGI (OVCAR-4 ovarian): > 100 µM
- GI50 (DU-145 prostate): 5.45 µM
- TGI (DU-145 prostate): 19.5 µM
- GI50 (UACC-257 melanoma): 7.71 µM
- TGI (UACC-257 melanoma): 41.2 µM
- GI50 (A549 NSCLC): 8.61 µM
- TGI (A549 NSCLC): 26.2 µM
- GI50 (KM12 colon): 25 µM
- TGI (KM12 colon): 62.1 µM
- GI50 (MDA-MB-231 breast): 13.6 µM
- TGI (MDA-MB-231 breast): 37.5 µM
- GI50 (SR leukemia): 11.5 µM
- TGI (SR leukemia): 33.2 µM
- GI50 (A498 renal): 18.1 µM
- TGI (A498 renal): 44.1 µM
- GI50 (UACC-62 melanoma): 17 µM
- TGI (UACC-62 melanoma): 71.5 µM
